Measured values from patent US8580731B2, “Insulin-gold nanocluster, pharmaceutical composition for reducing blood glucose comprising the same, and method for detecting adipose cells in tissue by using the same” (priority 2012, dated 2013).

System: insulin-degradation enzyme (IDE)
Assay: Insulin-Au NC fluorescence in mouse brain homogenate (IDE degradation and inhibition)
Type: biochemical
Settings: inhibitor 0.01 to 1 mM pre-incubated 30 min with brain homogenate
Description: In addition, ten-week-old C57BL/6J male mice were well-anesthetized by i.p. injection of pentobarbital (75 mg/kg), and then the brain was removed and homogenated in PBS. The homogenate was then centrifuged at 6,000×g for 20 min and the supernatant was collected for the preparation of further experiments.
0.01, 0.1, and 1 mM doses of thiorphan or racecadotril, which was known as inhibiting agents for insulin-degradation enzyme (IDE), were co-incubated with the brain homogenates for 30 min, and then 10 μg/ml insulin-Au NCs was added and incubated with brain homogenates for 1 hour at 37° C. The detection of the insulin-Au NCs was determined by 450 nm and 650 nm of the emission excitation wavelength, respectively.

Compound | recovery of 670 nm emission (IDE inhibition)
CC(=O)SCC(Cc1ccccc1)C(=O)NCC(=O)OCc1ccccc1 (centres unmarked) [racecadotril] | signal recovery was increased
O=C(O)CNC(=O)C(CS)Cc1ccccc1 (centres unmarked) [thiorphan] | signal recovery was increased
